Experimental data as given in patent US4745223A, “Mono-tertiary-alkylated toluenediamine and derivatives” (Air Products and Chemicals, Inc., priority 1985, dated 1988).

Columns and labels:
[1] = Pot life test of chain extenders in polyurethane-urea formulation; settings: 50° C., log (relative viscosity) = I + A*(time) + B*(time)**2 + C*(time)**3
Procedure: A series of polyurethane-urea elastomers utilizing various chain extenders was prepared and evaluated in a pot life test system for the purpose of determining the reactivity of the chain extenders in standard urethane formulations relative to one another. The polyurethane-urea elastomers were formulated by reacting a prepolymer of poly(1,4-oxytetramethylene)glycol end-capped with 2,4-toluene diisocyanate, the prepolymer having an NCO content generally from 5-7%, with the test candidate chain extender aromatic diamine and a diol. The nominal stoichiometric equivalent ratio of isocyanate to diamine chain extender to diol for each sample is 2:1:1.
The test system for measuring pot life comprised a heated test chamber for holding 7 grams of test sample at a constant temperature (50° C.) and was equipped with a vertical perforated piston. This piston moves up and down through the test sample in timed relationship. (The temperature rise due to the exothermic reaction is discounted.) The force necessary to move the piston through the polymer sample is measured in arbitrary units, and the relationship of the force is plotted as a function of time. The force-pot life relationship of the urethane system during cure then is correlated to known force-viscosity relationships for the urethane-urea systems.
The coefficients apply to the equation:
log (viscosity)=I+A(time)+B(time)^2 +C(time)^3.
The coefficient of the first power term ("A") is a "quasi" reaction rate constant measuring initial reactivity. Smaller values in the quasi rate constant (A) indicate longer and desirable pot lives. The value T-5000 is the time in which the reaction product has a relative viscosity of 5000 units. Even though the value is an arbitrary value, that value is relevant for use in determining the performance of the test candidate in a RIM process or cast elastomers process. For injection molding of modest size parts, T-5000 may be about 2.5 minutes; whereas, the molding of large or intricate parts may require a T-5000 of greater than 5 minutes, e.g., 10 to 40 minutes for hand casting.

Salmonella strain TA1537 [2] = test: Ames mutagenic assay, strain (TA1537), without (-) and with (+) metabolic activation; assay type: cell-based; settings: first strain column, TA1537 as printed
Procedure: (§1) A series of chain extenders was tested in the Ames mutagenic assay using five strains of Salmonella bacteria without (-) and with (+) metabolic activation. Table 6 provides the results of various test compounds including a variety of known aromatic diamine chain extenders against these five strains of Salmonella bacteria. The data are presented as the quantity of test compound in micrograms per test plate that gave positive mutagencity results.
(§2) From Pharmakon Research International, the Ames test data evaluation criteria in Table 5 are clearly defined: "In most tests with the Salmonella/Microsome Assay, results are either clearly positive or clearly negative. A positive result is defined as a reproducible, dose-related increase in the number of histidine-independent colonies. This dose-response relationship occasionally necessitates slight modification of the original doses in a repeat assay. If the historical control is within one standard deviation of the historical mean and the test chemical produces the highest increase equal to or greater than three times the solvent control value, the test chemical is considered positive. A negative result is defined as the absence of a reproducible increase in the number of histidine-independent colonies."

Salmonella strain TA1537 [3] = test: Ames mutagenic assay, second strain column (printed TA1537), without (-) and with (+) metabolic activation; assay type: cell-based; settings: TA1537 as printed, (+) with metabolic activation
Procedure: as §1, §2

Salmonella strain TA1538 = test: Ames mutagenic assay, strain TA1538; assay type: cell-based
Procedure: as §1, §2

Salmonella strain TA98 = test: Ames mutagenic assay, strain TA98; assay type: cell-based; settings: TA98, (+) with metabolic activation
Procedure: as §1, §2

Salmonella strain TA100 = test: Ames mutagenic assay, strain TA100; assay type: cell-based
Procedure: as §1, §2

[4] = system: five strains of Salmonella bacteria; test: Ames test, overall outcome; assay type: cell-based; settings: with and without metabolic activation
Procedure: as §1, §2

In the case of “3-Cyclopentenyl-2,6-toluenediamine [3Cp26TDA]”, the “lineshape coefficient A (quasi reaction rate constant, initial reactivity)” value [1] is reported as “.7173”.
In the case of `CCC(C)(C)c1ccc(N)c(C)c1N` [3tA26TDA, 3-tertiaryAmyl-2,6-toluenediamine], the “lineshape coefficient A (quasi reaction rate constant, initial reactivity)” value [1] is reported as “.08902”.
With chlorotoluenediamine [Cl-TDA] the “quantity of test compound that gave positive mutagenicity results” value (“quantity” for short) (Salmonella strain TA1537 [2]; (+) with metabolic activation) was 50 micrograms per test plate, the “quantity” value (Salmonella strain TA1537 [2]; (-) without metabolic activation) was 500 micrograms per test plate and the “quantity” value (Salmonella strain TA1537 [3]) was 5000 micrograms per test plate. The “quantity” value (Salmonella strain TA1538) was 500 micrograms per test plate, the “quantity” value (Salmonella strain TA98) was 500 micrograms per test plate and the “quantity” value (Salmonella strain TA100) was 500 micrograms per test plate. For the same compound, the Ames test result [4] was “Ames positive”.
In the case of `Cc1c(N)c(C(C)(C)C)cc(C(C)(C)C)c1N` [35DtB26TDA, 3,5-Ditertiarybutyl-2,6-toluenediamine], the “quantity” value (Salmonella strain TA1538) is reported as 50 micrograms per test plate, the “quantity” value (Salmonella strain TA98) is reported as 15 micrograms per test plate and the “quantity” value (Salmonella strain TA100) is reported as 50 micrograms per test plate. The Ames test result [4] was “Ames positive” and the “lineshape coefficient A (quasi reaction rate constant, initial reactivity)” value [1] was “.1601”.
With `Cc1cc(C(C)(C)C)c(N)c(C)c1N` [5tB24DAmX, 5-tertiaryButyl-2,4-diaminometaxylene] the “lineshape coefficient A (quasi reaction rate constant, initial reactivity)” value [1] was “.8716”.
For `Cc1c(N)cc(C(C)(C)C)cc1N` [4tB26TDA, 4-tertiaryButyl-2,6-toluenediamine], the “lineshape coefficient A (quasi reaction rate constant, initial reactivity)” value [1] was 3.867 and the “lineshape coefficient A (quasi reaction rate constant, initial reactivity)” value ([1]; listed as 4-tertiarybutyl-2,6-toluenediamine) was 3.87.
With `Cc1c(N)ccc(C(C)C)c1N` [3iP26TDA, 3-isoPropyl-2,6-toluendiamine] the “lineshape coefficient A (quasi reaction rate constant, initial reactivity)” value [1] was “.5074”.
With `CCc1cc(CC)c(N)c(C)c1N` [35DE26TDA, 3,5-Diethyl-2,6-toluenediamine] the “lineshape coefficient A (quasi reaction rate constant, initial reactivity)” value [1] was 5.572.
With `Cc1c(N)ccc(C2(C)CCCC2)c1N` [3tMCp26TDA, 3-tertiaryMethylcyclopentyl-2,6-toluenediamine] the “lineshape coefficient A (quasi reaction rate constant, initial reactivity)” value [1] was “.1722”.
In the case of `Cc1cc(C(C)C)c(N)cc1N` [5iP24TDA, 5-isoPropyl-2,4-toluenediamine], the “lineshape coefficient A (quasi reaction rate constant, initial reactivity)” value [1] is reported as 3.374.
For `CC(C)(C)c1ccc(N)cc1N` [tBBDA, tertiaryButyl-2,4-benzenediamine], the “quantity” value (Salmonella strain TA1538) was 1200 micrograms per test plate and the “quantity” value (Salmonella strain TA98) was 1800 micrograms per test plate.
With `Cc1cc(C(C)C)c(N)c(C(C)C)c1N` [35DiP24TDA, 3.5-Diisopropyl-2,4-toluenediamine] the “lineshape coefficient A (quasi reaction rate constant, initial reactivity)” value [1] was “.7499”.
For `Cc1cc(N)c(N)c(C(C)(C)C)c1` [3tB34TDA, 5-tertiaryButyl-3,4-toluenediamine], the “lineshape coefficient A (quasi reaction rate constant, initial reactivity)” value [1] was “.2764”.
For `CCc1cc(C)c(N)c(CC)c1N` [35DE24TDA, 3,5-Diethyl-2,4-toluenediamine], the “lineshape coefficient A (quasi reaction rate constant, initial reactivity)” value [1] was 1.350.
With `Cc1c(N)c(C(C)C)cc(C(C)C)c1N` [35DiP26TDA, 3,5-Diisopropyl-2,6-toluenediamine] the “lineshape coefficient A (quasi reaction rate constant, initial reactivity)” value [1] was 1.563.
With `Cc1c(N)ccc(C(C)(C)C)c1N` [3tB26TDA, 3-tert-butyl-2,6-toluenediamine] the “lineshape coefficient A (quasi reaction rate constant, initial reactivity)” value [1] was “.06721” and the “lineshape coefficient A (quasi reaction rate constant, initial reactivity)” value ([1]; listed as Monotertiarybutylated 2,6-TDA) was 0.06721.
